The record followed here is PubChem BioAssay AID330 (DTP/NCI, 2004).

“And” between values parts separate entries of the source, which are not always exact repeats. Equal entries are not always repeated. Toxic doses and inconclusive results are not listed.

For this experiment, the system named is P388 leukemia ip, CD2F1 mice, survival T/C. Nature of the experiment: NCI In Vivo Anticancer Drug Screen. Data for tumor model P388 Leukemia (intraperitoneal) in CD2F1 (CDF1) mice. The settings on record: endpoint: median survival time, higher = longer survival. In outline: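 Mice carrying the transplanted tumor received test compound or vehicle. Survival was recorded in each group, and the value is the treated-group measurement divided by that of the vehicle-treated control group.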

The mark [1] stands for this setting: dose: 50.0 mg/kg/injection, schedule: Q01DX005 (ip), vehicle: Klucel (hydroxypropylcellulose) (HPC).
The mark [2] stands for this setting: dose: 100.0 mg/kg/injection, schedule: Q01DX005 (ip), vehicle: Klucel (hydroxypropylcellulose) (HPC).
Setting [3] is: dose: 50.0 mg/kg/injection, schedule: Q01DX005 (ip), vehicle: saline with Tween-80.
Where [4] appears, read: dose: 100.0 mg/kg/injection, schedule: Q01DX005 (ip), vehicle: saline with Tween-80.
[5] abbreviates: dose: 200.0 mg/kg/injection, schedule: Q01DX005 (ip), vehicle: saline with Tween-80.

`COc1cccc2c1C(=O)c1c(O)c3c(c(O)c1C2=O)C[C@@](O)(C(=O)CO)C[C@@H]3OC1CC(N(C)C)C(O)C(C)O1` (stereo not given in full): the T/C runs as follows: (dose: 0.06 mg/kg/injection, schedule: Q01DX009 (ip), vehicle: water) 108 % of control; (dose: 0.13 mg/kg/injection, schedule: Q01DX009 (ip), vehicle: water) 119 % of control; (dose: 0.19 mg/kg/injection, schedule: Q04DX003 (ip), vehicle: water) 104 % of control; (dose: 0.25 mg/kg/injection, schedule: Q01DX009 (ip), vehicle: water) 150 % of control; (dose: 0.38 mg/kg/injection, schedule: Q04DX003 (ip), vehicle: water) 100 % of control; (dose: 0.5 mg/kg/injection, schedule: Q01DX009 (ip), vehicle: water) 160 % of control and 164 % of control. For the same molecule, the T/C by setting is: (dose: 0.75 mg/kg/injection, schedule: Q04DX003 (ip), vehicle: water) 104 % of control; (dose: 0.86 mg/kg/injection, schedule: Q04DX003 (ip), vehicle: water) 154 % of control; (dose: 1.44 mg/kg/injection, schedule: Q04DX003 (ip), vehicle: water) 163 % of control; (dose: 1.5 mg/kg/injection, schedule: Q04DX003 (ip), vehicle: water) 106 % of control; (dose: 2.0 mg/kg/injection, schedule: Q01DX009 (ip), vehicle: water) 101 % of control; (dose: 2.4 mg/kg/injection, schedule: Q04DX003 (ip), vehicle: water) 175 % of control. For the same molecule, the T/C reads like this: (dose: 2.5 mg/kg/injection, schedule: Q01DX001 (ip), vehicle: water) 153 % of control; (dose: 3.0 mg/kg/injection, schedule: Q04DX003 (ip), vehicle: water) 113 % of control; (dose: 4.0 mg/kg/injection, schedule: Q04DX003 (ip), vehicle: water) 117 % of control; (dose: 5.0 mg/kg/injection, schedule: Q01DX001 (ip), vehicle: water) 153 % of control; (dose: 6.0 mg/kg/injection, schedule: Q04DX003 (ip), vehicle: water) 123 % of control; (dose: 6.67 mg/kg/injection, schedule: Q04DX003 (ip), vehicle: water) 97 % of control.

Regarding `c1nc(N2CCCCC2)c2[nH]cnc2n1`, the T/C is 109 % of control under setting [1] and 104 % of control under setting [2].

For `CCOC(=O)C(Cc1cc2c(n1C)CCCC2)(NC(C)=O)C(=O)OCC`, the T/C runs as follows: (dose: 25.0 mg/kg/injection, schedule: Q01DX005 (ip), vehicle: Klucel (hydroxypropylcellulose) (HPC)) 98 % of control; under setting [1], 96 % of control; under setting [2], 98 % of control; (dose: 200.0 mg/kg/injection, schedule: Q01DX005 (ip), vehicle: Klucel (hydroxypropylcellulose) (HPC)) 100 % of control.

Take `CCNC(=O)N(Cc1ccccc1)Cc1ccccc1`: the T/C by setting is: (dose: 12.5 mg/kg/injection, schedule: Q01DX009 (ip), vehicle: other) 114 % of control; (dose: 25.0 mg/kg/injection, schedule: Q01DX009 (ip), vehicle: other) 112 % of control; (dose: 50.0 mg/kg/injection, schedule: Q01DX009 (ip), vehicle: other) 104 % of control; (dose: 100.0 mg/kg/injection, schedule: Q01DX009 (ip), vehicle: other) 118 % of control.

Turning to `COC1C(C)OC(OC2CC(C)(O)Cc3cc4c(c(O)c32)C(=O)c2c(O)cc3c(c2C4=O)OC2OC3(C)C(O)C(N(C)C=O)C2O)C(OC)C1(C)OC` (stereo not given), the T/C runs as follows: (dose: 3.12 mg/kg/injection, schedule: Q04DX003 (ip), vehicle: other) 100 % of control; (dose: 6.25 mg/kg/injection, schedule: Q04DX003 (ip), vehicle: other) 97 % of control; (dose: 12.5 mg/kg/injection, schedule: Q04DX003 (ip), vehicle: other) 94 % of control; (dose: 25.0 mg/kg/injection, schedule: Q04DX003 (ip), vehicle: other) 91 % of control; (dose: 50.0 mg/kg/injection, schedule: Q04DX003 (ip), vehicle: other) 95 % of control.

Turning to `COc1cc2c(cc1OC)[C@@H](CO)[C@H]1c3cc4c(cc3CCN1C2)OCO4`, the T/C reads like this: (dose: 50.0 mg/kg/injection, schedule: Q04DX003 (ip), vehicle: distilled water + Tween-80) 106 % of control and 115 % of control; (dose: 100.0 mg/kg/injection, schedule: Q04DX003 (ip), vehicle: distilled water + Tween-80) 100 % of control and 98 % of control; (dose: 200.0 mg/kg/injection, schedule: Q04DX003 (ip), vehicle: distilled water + Tween-80) 105 % of control and 120 % of control.

Consider `CCc1c(C)sc(=S)n1C(C)C(=O)OC` (stereo not given), for which the T/C runs as follows: under setting [3], 98 % of control; under setting [4], 106 % of control; under setting [5], 107 % of control.

`O=C1C2C3CCC(O3)C2C(=O)N1CO` (stereo not given): the T/C was 112 % of control (dose: 60.0 mg/kg/injection, schedule: Q01DX005 (ip), vehicle: saline) and 124 % of control (dose: 120.0 mg/kg/injection, schedule: Q01DX005 (ip), vehicle: saline).

For `COC1=CC(=O)C(C(C)=O)=C(C2(C)C(=O)CCCC2=O)C1=O`, the T/C is, setting by setting: under setting [3], 106 % of control; under setting [4], 89 % of control; under setting [5], 104 % of control.

Turning to `O=C1/C(=C/c2ccccc2)CCCC12C(c1ccccc1)N2C1CCCCC1` (stereo not given), the T/C by setting is: (dose: 100.0 mg/kg/injection, schedule: Q04DX002 (ip), vehicle: Klucel (hydroxypropylcellulose) (HPC)) 93 % of control; (dose: 200.0 mg/kg/injection, schedule: Q04DX002 (ip), vehicle: Klucel (hydroxypropylcellulose) (HPC)) 86 % of control; (dose: 400.0 mg/kg/injection, schedule: Q04DX002 (ip), vehicle: Klucel (hydroxypropylcellulose) (HPC)) 92 % of control.

In the case of `CNc1ccc(Nc2cccc(C)c2)c2c1C(=O)c1ccccc1C2=O`, the T/C (dose: 50.0 mg/kg/injection, schedule: Q01DX009 (ip), vehicle: Klucel (hydroxypropylcellulose) (HPC)) is 100 % of control; the T/C (dose: 100.0 mg/kg/injection, schedule: Q01DX009 (ip), vehicle: Klucel (hydroxypropylcellulose) (HPC)) was 91 % of control; the T/C (dose: 200.0 mg/kg/injection, schedule: Q01DX009 (ip), vehicle: Klucel (hydroxypropylcellulose) (HPC)) was 113 % of control.
